Measured values: patent publication US9956214B2, “5-aminopyrazole-4-carboxamide inhibitors of CDPK1 from T. gondii and C. parvum” (UNIVERSITY OF WASHINGTON THROUGH ITS CENTER FOR …, priority 2013, dated 2018)

Tests used:
[1] = molecular target: Kdr (Homo sapiens (Human), UniProt P35968); assay: Kinase panel selectivity: Kdr; format: biochemical
[2] = Solubility at pH 6.5; format: physicochemical; details: in words
[3] = test system: 24 off-target liabilities (e.g. ion channels, G-protein receptors); assay: 24 off-target liability screen
[4] = test system: C. parvum Iowa strain; assay: C. parvum infection in mice (beige/SCID mouse model); details: oral gavage 20 mg/kg 8 AM and 40 mg/kg 5 PM, days 5-14 after infection; each time point except Days 0 and 3; p ≤0.05
[5] = Stability; details: in words
[6] = molecular target: hERG (Homo sapiens (Human), UniProt Q12809); assay: hERG inhibitory activity; format: binding; details: in words, as compared to compound 9 (1294)
[7] = test system: 80 human protein kinases (hPKs); assay: AbbVie panel of 80 human protein kinases; format: biochemical; details: no hPKs inhibited
[8] = molecular target: Prkcn (Homo sapiens (Human), UniProt O94806); assay: Kinase panel selectivity: Prkcn; format: biochemical
[9] = Oral availability; format: in vivo; details: compared with compound 9 (1294)

Prkcn, sequence (O94806 whole entry, looked up, species assumed): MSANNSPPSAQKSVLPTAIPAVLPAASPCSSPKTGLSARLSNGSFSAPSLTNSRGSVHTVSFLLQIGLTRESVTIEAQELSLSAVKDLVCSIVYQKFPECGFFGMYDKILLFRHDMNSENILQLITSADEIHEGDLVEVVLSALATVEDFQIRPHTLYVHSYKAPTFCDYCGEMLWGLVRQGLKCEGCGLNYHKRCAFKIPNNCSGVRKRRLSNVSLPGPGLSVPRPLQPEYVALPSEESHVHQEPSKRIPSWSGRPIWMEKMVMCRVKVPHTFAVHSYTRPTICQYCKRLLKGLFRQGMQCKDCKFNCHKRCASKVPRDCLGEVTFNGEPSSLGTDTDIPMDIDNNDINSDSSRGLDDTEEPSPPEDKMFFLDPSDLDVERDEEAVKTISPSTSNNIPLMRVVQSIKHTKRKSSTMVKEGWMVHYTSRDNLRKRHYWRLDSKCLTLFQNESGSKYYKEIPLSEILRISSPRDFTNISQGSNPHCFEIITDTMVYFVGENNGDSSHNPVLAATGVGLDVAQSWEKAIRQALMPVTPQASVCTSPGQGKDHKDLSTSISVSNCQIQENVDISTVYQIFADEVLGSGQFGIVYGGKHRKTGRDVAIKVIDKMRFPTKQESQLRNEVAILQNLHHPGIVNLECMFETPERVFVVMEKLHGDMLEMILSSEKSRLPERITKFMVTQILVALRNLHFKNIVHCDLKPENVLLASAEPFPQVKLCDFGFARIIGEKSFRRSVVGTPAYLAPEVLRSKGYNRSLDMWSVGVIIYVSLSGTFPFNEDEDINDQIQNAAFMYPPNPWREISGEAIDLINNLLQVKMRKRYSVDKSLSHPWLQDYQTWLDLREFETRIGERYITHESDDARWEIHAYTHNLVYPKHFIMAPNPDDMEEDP
hERG, sequence (Q12809 whole entry): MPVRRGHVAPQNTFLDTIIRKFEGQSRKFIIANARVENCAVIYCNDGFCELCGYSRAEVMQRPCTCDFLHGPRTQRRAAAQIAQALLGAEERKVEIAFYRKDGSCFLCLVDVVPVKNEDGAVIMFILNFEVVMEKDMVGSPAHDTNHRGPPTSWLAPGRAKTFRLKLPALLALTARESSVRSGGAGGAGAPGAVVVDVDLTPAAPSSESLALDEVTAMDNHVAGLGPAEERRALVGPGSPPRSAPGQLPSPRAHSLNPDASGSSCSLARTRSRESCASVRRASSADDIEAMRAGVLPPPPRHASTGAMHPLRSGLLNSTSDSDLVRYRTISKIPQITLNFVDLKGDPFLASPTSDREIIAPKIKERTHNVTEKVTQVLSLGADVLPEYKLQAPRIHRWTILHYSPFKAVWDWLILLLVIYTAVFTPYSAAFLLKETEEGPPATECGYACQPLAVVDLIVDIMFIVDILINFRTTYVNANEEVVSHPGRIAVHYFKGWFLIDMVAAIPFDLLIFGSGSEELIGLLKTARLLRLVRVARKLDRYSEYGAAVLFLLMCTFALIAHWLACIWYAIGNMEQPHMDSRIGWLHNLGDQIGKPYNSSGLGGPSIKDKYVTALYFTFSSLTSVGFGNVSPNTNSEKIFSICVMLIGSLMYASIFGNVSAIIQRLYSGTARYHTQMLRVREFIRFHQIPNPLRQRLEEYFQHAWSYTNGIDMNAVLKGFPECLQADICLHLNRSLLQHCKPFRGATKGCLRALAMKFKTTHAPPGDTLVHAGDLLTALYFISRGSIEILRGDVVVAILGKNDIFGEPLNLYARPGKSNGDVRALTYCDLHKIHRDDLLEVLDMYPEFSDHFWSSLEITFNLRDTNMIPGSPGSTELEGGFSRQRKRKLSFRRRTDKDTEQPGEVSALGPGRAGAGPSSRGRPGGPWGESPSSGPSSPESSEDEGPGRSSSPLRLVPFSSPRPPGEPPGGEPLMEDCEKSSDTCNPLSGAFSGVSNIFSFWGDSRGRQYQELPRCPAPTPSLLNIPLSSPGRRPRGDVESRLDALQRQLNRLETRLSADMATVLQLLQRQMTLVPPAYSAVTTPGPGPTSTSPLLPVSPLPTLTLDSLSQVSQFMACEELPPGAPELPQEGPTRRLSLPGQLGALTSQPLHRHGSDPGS
Kdr, sequence (P35968 20-1356, species assumed): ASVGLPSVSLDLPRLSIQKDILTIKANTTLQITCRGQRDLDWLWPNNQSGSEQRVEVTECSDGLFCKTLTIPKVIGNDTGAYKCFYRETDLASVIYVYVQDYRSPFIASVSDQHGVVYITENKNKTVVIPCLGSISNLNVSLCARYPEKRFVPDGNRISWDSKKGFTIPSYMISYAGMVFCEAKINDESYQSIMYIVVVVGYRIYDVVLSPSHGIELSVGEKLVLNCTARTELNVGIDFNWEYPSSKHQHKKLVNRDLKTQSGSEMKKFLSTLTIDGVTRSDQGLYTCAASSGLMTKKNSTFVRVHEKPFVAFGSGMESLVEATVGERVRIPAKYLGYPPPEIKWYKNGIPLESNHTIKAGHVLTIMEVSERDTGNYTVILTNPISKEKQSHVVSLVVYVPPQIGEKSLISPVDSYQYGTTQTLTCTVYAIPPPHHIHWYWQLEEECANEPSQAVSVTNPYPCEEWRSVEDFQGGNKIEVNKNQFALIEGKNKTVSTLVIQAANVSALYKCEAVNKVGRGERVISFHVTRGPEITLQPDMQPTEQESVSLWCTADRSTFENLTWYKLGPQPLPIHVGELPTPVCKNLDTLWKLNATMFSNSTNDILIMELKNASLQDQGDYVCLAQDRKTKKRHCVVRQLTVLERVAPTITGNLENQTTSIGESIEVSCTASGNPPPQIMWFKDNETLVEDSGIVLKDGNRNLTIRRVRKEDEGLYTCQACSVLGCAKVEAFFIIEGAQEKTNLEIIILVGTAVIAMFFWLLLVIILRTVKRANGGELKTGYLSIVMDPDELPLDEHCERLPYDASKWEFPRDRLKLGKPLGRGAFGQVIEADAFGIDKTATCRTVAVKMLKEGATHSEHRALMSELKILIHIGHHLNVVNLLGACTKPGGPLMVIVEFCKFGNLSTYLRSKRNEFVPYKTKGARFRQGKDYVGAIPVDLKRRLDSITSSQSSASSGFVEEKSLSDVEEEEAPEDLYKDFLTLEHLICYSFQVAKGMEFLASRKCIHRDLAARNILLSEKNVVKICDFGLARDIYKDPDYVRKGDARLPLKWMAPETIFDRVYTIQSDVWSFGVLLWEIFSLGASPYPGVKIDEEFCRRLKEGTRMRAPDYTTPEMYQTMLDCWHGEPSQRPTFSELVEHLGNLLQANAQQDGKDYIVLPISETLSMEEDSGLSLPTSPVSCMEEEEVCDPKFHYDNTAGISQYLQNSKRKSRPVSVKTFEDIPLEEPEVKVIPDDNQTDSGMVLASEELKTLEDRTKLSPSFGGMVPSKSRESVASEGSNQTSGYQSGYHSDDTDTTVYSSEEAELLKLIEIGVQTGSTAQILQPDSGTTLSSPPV

Q: What does the source list for CCOc1ccc2cc(-c3nn(C(C)(C)C)c(N)c3C(N)=O)cnc2c1 [Compound 39, 5-amino-1-(tert-butyl)-3-(7-ethoxyquinolin-3-yl)-1H-pyrazole-4-carboxamide]?
A: Kdr pKi [1]: 6.24; solubility [2]: good solubility; signal in 24 off-target liability screen [3]: no signal was detected; oocysts shed in stool, difference between treated and vehicle groups [4]: the difference was significant; stability [5]: good stability; hERG inhibitory activity [6]: no hERG inhibitory activity; inhibition of hPKs, level without inhibition [7]: > 3 µM; Prkcn pKi [8]: 6.37; oral availability [9]: higher oral availability
